Results on three compounds are retold here after US4882314A, “A composition and method of treating selected malignant conditions” (priority 1987, dated 1989).

The test system of one series is W2K.11 cells. As to the kind of experiment: SV40 test: inhibition of proliferation of SV40-transformed malignant cells. Format: cell-based, C3H mice. The conditions noted are these: Mus musculus, read-out: proliferation inhibition ratio. The protocol:
The SV40 (Simian Virus 40) method was adopted for determination of the carinostatic activity. According to this method, normal kidney cells of mice are transformed to malignant cells by the oncogenic virus SV40, the malignant cells are cultured, the test compound is added to the culture medium, the ratio of inhibition of proliferation of the cells is calculated and the carcinostatic activity is determined based on the calculated value. This method has recently been widely used because accurate results can be obtained [see proceedings of the Society for Experimental Biology and Medicine, 114, pages 721-727 (1963)].
The W2K.11 cells obtained by a malignant transformation of normal kidney cells of C3H mice by the oncogenic virus SV40 were used as cells for the test, and they were cultured according to the following method.
(1) Preparation of Culture Medium:
9.4 g of Eagle MEM Medium (manufactured by Nissui Seiyaku K.K.) was dissolved in 900 ml of distilled water and the solution was sterilized at 120° C., under pressure for 15 minutes. After cooling the sterilized solution, 100 ml of calf serum and 3 to 5 ml of a 10% aqueous solution of sodium hydrogencarbonate sterilized separately at 115° C. under pressure for 15 minutes were added to the solution to adjust the pH to 7.1 to 7.2. Just before the resulting culture medium was used, 10 ml of a L-glutamine solution (2.92 g/100 ml) filtered through A millipore filter was added thereto.
(2) Preparation of Test Cells:
The frozen test cells preserved in a deep freezer (-80° C.) with dimethyl sulfoxide added to the above culture medium to a final concentration of 10% were […] at room temperature and subjected to centrifugal separation under 670×g for 5 minutes. The supernatant was discarded and the precipitated cells were suspended in 50 ml of the culture medium. Then, the culture medium was transferred to a Roux flask and culturing was conducted at 37° C. The cells began to grow while adhering to the bottom of the flask, and sufficient growth was obtained in 3 to 4 days. […]

Series [1] can be described thus: acute toxicity, oral administration or subcutaneous injection in mice. Format: in vivo. The conditions noted are these: mouse, in vivo; oral administration in mice. How it is done:
(§1) The LD50 (mg/kg) value of the compound which is the active ingredient of the present invention, for example, in case of oral administration in mice is about 3000 mg/kg.

In the next series the test system is mice. The description is as above. The class given is in vivo. The conditions noted are these: subcutaneous injection or oral administration in mice. The protocol:
as §1

Series [2] can be described thus: toxicity / side effects on continuous administration. The class given is in vivo.
The test system of a further series is colon carcinoma. Briefly: Experiment 2: clinical treatment of colon carcinoma with metastatic cancer in the liver. The class given is in vivo, human. How it is done:
Person, colon carcinoma with metastatic cancer of 13 cm×10 cm×8 cm in the liver, abdominal dropsy observed.
The patient was subjected to abdominal surgery on June 4, 1979 but extraction of the cancer was impossible and the incised abdoment was immediately sutured.
Administration of 4,6-O-benzylidene-D-glucopyranose at a dosage of 20 mg/day/man (in the form of a physiological saline solution having an active ingredient concentration of 4 mg/ml) by intraperitoneal injection was stated on Aug. 25, 1979. The preparation for injection was prepared according to Example 1. In about one month, the abdominal dropsy disappeared, appetite improved and the overall body condition improved.
A C.T. scan of the liver of the patient before the start of the intraperitoneal injection, that was taken on Aug. 25, 1979, is shown in FIG. 1-A (the metastic lesion (A) appears on the left-side of the tomogram), and a C.T. scan of the same region taken on Dec.

The subject of the next series is tongue cancer. As to the kind of experiment: Experiment 3: clinical treatment of tongue cancer. Format: in vivo, human.
The test system of series [3] is peritonitis cartinimatosa. As to the kind of experiment: Experiment 4: clinical treatment of peritonitis carcinomatosa. The class given is in vivo, human. The conditions noted are these: 200 mg/day/man intravenous infusion. The protocol: Administration of 4,6-O-benzylidene-D-glucopyranose at a dosage of 200 mg/day/man by intravenous infusion was started for the treatment of the patient.

For another series, the system named is primary liver tumor. Briefly: Experiment 5: clinical treatment of primary liver tumor. The class given is in vivo, human. The conditions noted are these: 200 mg/day/man intravenous infusion. How it is done:
4,6-O-benzylidene-D-glucopyranose was continuously administered at a dosage of 200 mg/day/man by intravenous infusion.

In the next series the test system is stomach cancer. Briefly: Experiment 6: clinical treatment of stomach cancer. Format: in vivo, human. The conditions noted are these: 200 mg/day/man intravenous infusion. How it is done: Patient: Stomach cancer of the terminal stage, the stomach extracted but many metastasized lesion in abdominal cavity, peritonitis cartinimatosa observed. […] The preparation for infusion was prepared according to Example 1. […] However, the patient died about 3 months after the start of administration.

The subject of series [4] is colon carcinoma, tongue cancer, peritonitis carcinomatosa, liver cancer and stomach cancer. As to the kind of experiment: clinical experiments, summary statement. Format: in vivo, human. The conditions noted are these: intravenous, about 20 to about 200 mg/day/man.
The nature of series [5]: stability and solubility, general statement. The class given is physicochemical.
The mark [6] stands for this setting: 20 mg/day/man intraperitoneal injection, about 3 months.
Where [7] appears, read: 20 mg/day/man intraperitoneal injection, about one month.
Setting [8] is: 200 mg/day/man intravenous infusion, after 10 days.

As usually defined, the LD50 is the dose expected to kill half of the subjects tested. A higher LD50 goes with lower toxicity. Take `OC1O[C@@H]2COC(c3ccccc3)O[C@H]2[C@H](O)[C@H]1O` (stereo partly drawn) [4,6-O-benzylidene-D-glucopyranose]: in the series on W2K.11 cells (72 h, 125 mcg/ml), the inhibition at 125 µg/mL came to 23%. Further, in the series on W2K.11 cells (72 h, 250 mcg/ml), the inhibition at 250 µg/mL came out at 37%. In the series on W2K.11 cells (500 mcg/ml, 72 hours of treatment), the inhibition at 500 µg/mL worked out at 72%. The compound further showed an LD50 in series [1] of roughly 3000 mg/kg. For the same compound, the “acute toxicity compared with other carcinostatic agents” value in the series with mice is listed as “much lower than that of other carinostatic agents”. The toxicity entry in series [2] (continuous administration at the above-mentioned dosage) was “no toxicity is observed”. Further, the “toxicity, general statement” value in [2] (in vivo) is on record as “lowly toxic”. In [2] (when administered), the “excretion from a living body” value is “readily excreted from a living body” and the side effects entry is reported as “no side effects are caused”. Moreover, in the series with colon carcinoma (setting [6]), the “CEA unit value (the hepatic function test)” value is given as “remarkably reduced” and the “metastatic lesion in the liver” value is reported as “almost disappeared”. Moreover, in the series with colon carcinoma (20 mg/day/man intraperitoneal injection, about 4 months, C.T. scan FIG. 1-A vs FIG. 1-B), the “metastatic lesion in the liver” value is “completely disappeared”. Besides, in the series on colon carcinoma (setting [7]), the abdominal dropsy entry was “disappeared”, the appetite result is given as “improved”, the “metastatic lesion in the liver (C.T. scan)” value is recorded as “contraction of the metastatic lesion in the liver had started” and the overall body condition result is given as “improved”. In addition, in the series with colon carcinoma (after treatment, 20 mg/day/man intraperitoneal injection), the patient outcome was “has lead a normal life since then”. Besides, in the series on tongue cancer (200 mg/day/man intravenous infusion), the “histopathology of the granular substance released from the submaxillar tumor” value is “composed of histopathologically keratinized squamous cells”. Also, the “malignant lesion of the tongue (photographs FIGS. 2-A, 3-A vs 2-B, 3-B)” value with tongue cancer (200 mg/day/man intravenous infusion, Oct. 15 to Nov. 19, 1979) is “disappeared”. Also, in the series with tongue cancer (setting [8]), the submaxillar tumor result was “softened and began to release a granular substance”; the “tumor on the tongue” value is listed as “began to disappear”. In addition, the patient outcome in the series with tongue cancer (200 mg/day/man intravenous infusion, terminal stage) is “died after about one month of treatment”. Further, the patient outcome in series [3] is listed as “died of paritonitis periforative about one month after the start of treatment”. In addition, in series [3] (one week), the abdominal dropsy entry is given as “disappeared”; the “cancer metastasized to the skin” value was “contraction of the cancer metastasized to the skin”; the “condition of the disease” value is “subjective and objective improvements”. For the same compound, in the series on primary liver tumor (about one month), the abdominal dropsy result is recorded as “reduction in the abdominal dropsy” and the liver tumor entry is “prominent contraction of the liver tumor”. Besides, the patient outcome with primary liver tumor (terminal stage) is listed as “died after about four months of treatment”. For the same compound, in the series on stomach cancer (one month), the abdominal dropsy entry was “disappeared” and the subjective symptoms result is reported as “remarkable improvement”. Also, the “time to death after start of administration” value in the series on stomach cancer (terminal stage) is “about 3 months”. Besides, the clinical effect entry in series [4] was “prominent effect”. For the same compound, in [5], the stability entry was “very stable” and the water solubility result is “water-soluble”.
In the case of `O=c1[nH]c(=O)n(C2CCCO2)cc1F` (stereo not shown) [FT 207, reference compound], in the series on colon carcinoma (FT 207 treatment with cobalt 60 radiotherapy, initiated before the operation), the “effect of prior treatment” value is on record as “no effect had been observed”.
On to `N#C[C@H](O[C@@H]1O[C@H](CO[C@@H]2O[C@H](CO)[C@@H](O)[C@H](O)[C@H]2O)[C@@H](O)[C@H](O)[C@H]1O)c1ccccc1` [laetrile, amygdalin, reference compound], for which the “effect of prior treatment” value in the series on tongue cancer (prior conventional chemotherapy, BCG, radiotherapy and laetrile) is given as “no effect could be observed”.
